Reference: article PMC5218480 (PLoS ONE, 2017)

System: MV-4-11 cells
Test: Gene expression microarray analysis (Affymetrix PrimeView) and GSEA
Format: cell-based, human
Set-up: RFU PODN (11730768_x_at) / Fold change /veh PODN (11730768_x_at) / RFU LINC00158 (11744669_a_at) / Fold change /veh LINC00158 (11744669_a_at) / RFU DUSP10 (11751237_a_at) / Fold change /veh DUSP10 (11751237_a_at) / RFU ID3 (11757404_x_at) / Fold change /veh ID3 (11757404_x_at) / RFU PLEKHG5 (11737974_s_at) / Fold change /veh PLEKHG5 (11737974_s_at) / RFU LRRC4B (11730491_at) / Fold change /veh LRRC4B (11730491_at) / RFU GIMAP4 (11747438_a_at) / Fold change /veh GIMAP4 (11747438_a_at) / RFU KRT8 (11758183_x_at) / Fold change /veh KRT8 (11758183_x_at) / RFU CNN1 (11734310_a_at) / Fold change /veh CNN1 (11734310_a_at) / RFU VPS37D (11726825_at) / Fold change /veh VPS37D (11726825_at) / RFU C10orf10 (11716522_x_at) / Fold change /veh C10orf10 (11716522_x_at) / RFU KIR2DL2 /// KIR2DL4 /// KIR2DL5A /// KIR2DL5B /// KIR2DS1 /// KIR2DS2 /// KIR2DS3 /// KIR2DS4 /// KIR3DL3 /// KIR3DL3 /// KIR3DS1 (11738374_at) / Fold change /veh KIR2DL2 /// KIR2DL4 /// KIR2DL5A /// KIR2DL5B /// KIR2DS1 /// KIR2DS2 /// KIR2DS3 /// KIR2DS4 /// KIR3DL3 /// KIR3DL3 /// KIR3DS1 (11738374_at) / RFU C1QL1 (11718748_at) / Fold change /veh C1QL1 (11718748_at) / RFU TMPRSS4 (11747572_a_at) / Fold change /veh TMPRSS4 (11747572_a_at) / RFU HAMP (11756126_x_at) / Fold change /veh HAMP (11756126_x_at) / RFU RNFT2 (11725882_a_at) / Fold change /veh RNFT2 (11725882_a_at) / RFU NR4A2 (11747474_a_at) / Fold change /veh NR4A2 (11747474_a_at) / RFU ABCC12 (11746883_a_at) / Fold change /veh ABCC12 (11746883_a_at) / RFU TMEM136 (11760407_x_at) / Fold change /veh TMEM136 (11760407_x_at) / RFU CLDN22 /// WWC2 (11732394_at) / Fold change /veh CLDN22 /// WWC2 (11732394_at) / RFU HLA-DPB1 (11760878_x_at) / Fold change /veh HLA-DPB1 (11760878_x_at) / RFU SPINT1 (11716480_a_at) / Fold change /veh SPINT1 (11716480_a_at) / RFU GAP43 (11754022_s_at) / Fold change /veh GAP43 (11754022_s_at) / RFU A4GNT (11735810_at) / Fold change /veh A4GNT (11735810_at) / RFU PRB3 (11715151_x_at) / Fold change /veh PRB3 (11715151_x_at) / RFU TUBB4B (11761932_at) / Fold change /veh TUBB4B (11761932_at) / RFU CAPN14 (11732068_a_at) / Fold change /veh CAPN14 (11732068_a_at) / RFU TMCC2 (11721928_a_at) / Fold change /veh TMCC2 (11721928_a_at) / RFU IRGQ (11745062_a_at) / Fold change /veh IRGQ (11745062_a_at) / RFU FAM174B (11720279_a_at) / Fold change /veh FAM174B (11720279_a_at) / RFU TMPRSS4 (11748680_a_at) / Fold change /veh TMPRSS4 (11748680_a_at) / RFU FAM212B (11763350_a_at) / Fold change /veh FAM212B (11763350_a_at) / RFU PLEKHG5 (11743358_a_at) / Fold change /veh PLEKHG5 (11743358_a_at) / RFU ZSCAN30 (11745921_a_at) / Fold change /veh ZSCAN30 (11745921_a_at) / RFU CMKLR1 (11741424_a_at) / Fold change /veh CMKLR1 (11741424_a_at) / RFU LOC101060620 /// MAPK8IP1 (11723275_at) / Fold change /veh LOC101060620 /// MAPK8IP1 (11723275_at) / RFU SPTSSB (11747773_x_at) / Fold change /veh SPTSSB (11747773_x_at) / RFU PRSS12 (11739890_at) / Fold change /veh PRSS12 (11739890_at) / RFU BIN1 (11741810_x_at) / Fold change /veh BIN1 (11741810_x_at) / RFU WNT11 (11732464_a_at) / Fold change /veh WNT11 (11732464_a_at) / RFU C10orf10 (11716521_a_at) / Fold change /veh C10orf10 (11716521_a_at) / RFU C5orf56 (11738089_at) / Fold change /veh C5orf56 (11738089_at) / RFU CYB561 (11721691_x_at) / Fold change /veh CYB561 (11721691_x_at) / RFU ANKRD19P (11752326_a_at) / Fold change /veh ANKRD19P (11752326_a_at) / RFU OR2T12 /// OR2T33 /// OR2T8 (11738714_s_at) / Fold change /veh OR2T12 /// OR2T33 /// OR2T8 (11738714_s_at) / RFU VCAN (11748164_a_at) / Fold change /veh VCAN (11748164_a_at) / RFU JSRP1 (11732532_at) / Fold change /veh JSRP1 (11732532_at) / RFU KRTAP10-11 (11738290_x_at) / Fold change /veh KRTAP10-11 (11738290_x_at) / RFU MYO3A (11730013_a_at) / Fold change /veh MYO3A (11730013_a_at) / RFU EBF3 (11725865_a_at) / Fold change /veh EBF3 (11725865_a_at) / RFU CAMK2N1 (11719241_x_at) / Fold change /veh CAMK2N1 (11719241_x_at) / RFU C5orf56 (11738088_a_at) / Fold change /veh C5orf56 (11738088_a_at) / RFU OLFML3 (11715873_a_at) / Fold change /veh OLFML3 (11715873_a_at) / RFU LOC100653217 /// NTM (11731650_a_at) / Fold change /veh LOC100653217 /// NTM (11731650_a_at) / RFU MAPK11 (11762145_a_at) / Fold change /veh MAPK11 (11762145_a_at) / RFU FIZ1 (11724087_x_at) / Fold change /veh FIZ1 (11724087_x_at) / RFU OASL (11726364_x_at) / Fold change /veh OASL (11726364_x_at) / RFU SOX15 (11748057_x_at) / Fold change /veh SOX15 (11748057_x_at) / RFU CD79A (11719716_a_at) / Fold change /veh CD79A (11719716_a_at) / RFU HIST1H1D (11736915_at) / Fold change /veh HIST1H1D (11736915_at) / RFU CASKIN2 (11723855_a_at) / Fold change /veh CASKIN2 (11723855_a_at) / RFU LOC730098 (11760151_x_at) / Fold change /veh LOC730098 (11760151_x_at) / RFU OR4N2 (11742367_at) / Fold change /veh OR4N2 (11742367_at) / RFU PRRT2 (11749266_a_at) / Fold change /veh PRRT2 (11749266_a_at) / RFU SNX32 (11753110_a_at) / Fold change /veh SNX32 (11753110_a_at) / RFU CDHR5 (11726645_a_at) / Fold change /veh CDHR5 (11726645_a_at) / RFU RCAN1 (11760418_a_at) / Fold change /veh RCAN1 (11760418_a_at) / RFU FAM167A (11723789_a_at) / Fold change /veh FAM167A (11723789_a_at) / RFU FAM26E (11764081_at) / Fold change /veh FAM26E (11764081_at) / RFU ISYNA1 (11749810_s_at) / Fold change /veh ISYNA1 (11749810_s_at) / RFU ACY1 (11761880_at) / Fold change /veh ACY1 (11761880_at) / RFU 11764098_at / Fold change /veh 11764098_at / RFU SAMD14 (11745864_x_at) / Fold change /veh SAMD14 (11745864_x_at) / RFU NPB (11741838_a_at) / Fold change /veh NPB (11741838_a_at) / RFU TMPRSS6 (11731388_a_at) / Fold change /veh TMPRSS6 (11731388_a_at) / RFU KRTAP10-2 (11738614_at) / Fold change /veh KRTAP10-2 (11738614_at) / RFU ARHGAP8 /// PRR5-ARHGAP8 (11727945_x_at) / Fold change /veh ARHGAP8 /// PRR5-ARHGAP8 (11727945_x_at) / RFU KRTAP5-7 /// NADSYN1 (11734609_at) / Fold change /veh KRTAP5-7 /// NADSYN1 (11734609_at) / RFU RASL12 (11751679_a_at) / Fold change /veh RASL12 (11751679_a_at) / RFU CDKN2B (11736163_a_at) / Fold change /veh CDKN2B (11736163_a_at) / RFU PRF1 (11729649_at) / Fold change /veh PRF1 (11729649_at) / RFU, ZNF638 /// ZNF638-IT1 / Fold change vs veh, ZNF638 /// ZNF638-IT1 / RFU, PANK3 / Fold change vs veh, PANK3 / RFU, SH3YL1 / Fold change vs veh, SH3YL1 / RFU, ZEB2 / Fold change vs veh, ZEB2 / RFU, NRIP1 / Fold change vs veh, NRIP1 / RFU, PTTG1IP / Fold change vs veh, PTTG1IP / RFU, CAPN2 / Fold change vs veh, CAPN2 / RFU, MED14 / Fold change vs veh, MED14 / RFU, SNORA58 / Fold change vs veh, SNORA58 / RFU, C1orf63 / Fold change vs veh, C1orf63 / RFU, LRRFIP1 / Fold change vs veh, LRRFIP1 / RFU, NDUFAF7 / Fold change vs veh, NDUFAF7 / RFU, SLC12A2 / Fold change vs veh, SLC12A2 / RFU, IBTK / Fold change vs veh, IBTK / RFU, ESF1 / Fold change vs veh, ESF1 / Fold change vs veh, TMEM50B / RFU, TAOK1 / Fold change vs veh, TAOK1 / RFU, ACBD3 / Fold change vs veh, ACBD3 / RFU, TMA16 / Fold change vs veh, TMA16 / RFU, RWDD3 / Fold change vs veh, RWDD3 / RFU, BCAT1 / Fold change vs veh, BCAT1 / RFU, EDEM3 / Fold change vs veh, EDEM3 / RFU, TMEM33 / Fold change vs veh, TMEM33 / RFU, WDR75 / Fold change vs veh, WDR75 / RFU, AHCTF1 / Fold change vs veh, AHCTF1 / RFU, TFRC / Fold change vs veh, TFRC / RFU, ZDHHC17 / Fold change vs veh, ZDHHC17 / RFU, NOM1 / Fold change vs veh, NOM1 / RFU, ARL8B / Fold change vs veh, ARL8B / RFU, ZBTB11 / Fold change vs veh, ZBTB11 / RFU, TAMM41 / Fold change vs veh, TAMM41 / RFU, KIAA1704 /// LOC100996395 / Fold change vs veh, KIAA1704 /// LOC100996395 / RFU, ING1 / Fold change vs veh, ING1 / RFU, TRMT61B / Fold change vs veh, TRMT61B / RFU, FUBP3 / Fold change vs veh, FUBP3 / RFU, TP53 / Fold change vs veh, TP53 / RFU, TNKS2 / Fold change vs veh, TNKS2 / RFU, ZFP14 / Fold change vs veh, ZFP14 / RFU, ACTR2 / Fold change vs veh, ACTR2 / RFU, PPP3R1 / Fold change vs veh, PPP3R1 / RFU, PIK3R1 / Fold change vs veh, PIK3R1 / RFU, HNRNPA1 / Fold change vs veh, HNRNPA1 / RFU, RNF170 / Fold change vs veh, RNF170 / RFU, ZNF28 / Fold change vs veh, ZNF28 / RFU, RNGTT / Fold change vs veh, RNGTT / RFU, OGT / Fold change vs veh, OGT / RFU, BRD1 / Fold change vs veh, BRD1 / RFU, MARS / Fold change vs veh, MARS / RFU, ZNF655 / Fold change vs veh, ZNF655 / RFU, FAHD1 / Fold change vs veh, FAHD1 / RFU, BDP1 / Fold change vs veh, BDP1 / RFU, LRRCC1 / Fold change vs veh, LRRCC1 / RFU, ARID1A / Fold change vs veh, ARID1A / RFU, ZNF146 / Fold change vs veh, ZNF146 / RFU, ZNF330 / Fold change vs veh, ZNF330 / RFU, GPN3 / Fold change vs veh, GPN3 / RFU, C9orf123 / Fold change vs veh, C9orf123 / RFU, N4BP2L2 / Fold change vs veh, N4BP2L2 / RFU, ARFIP1 / Fold change vs veh, ARFIP1 / RFU, FAM179B / Fold change vs veh, FAM179B / RFU, BCL10 / Fold change vs veh, BCL10 / RFU, UHRF1BP1L / Fold change vs veh, UHRF1BP1L / RFU, BET1 / Fold change vs veh, BET1 / RFU, CNOT2 / Fold change vs veh, CNOT2 / RFU, ZNF268 / Fold change vs veh, ZNF268 / Fold change vs veh, ZNF507 / RFU, DGCR2 / Fold change vs veh, DGCR2 / RFU, WDSUB1 / Fold change vs veh, WDSUB1 / Fold change vs veh, HSP90B1 /// MIR3652 / RFU, ADSS / Fold change vs veh, ADSS / RFU, GK / Fold change vs veh, GK / RFU, ZNF148 / Fold change vs veh, ZNF148 / RFU, TAF9 / Fold change vs veh, TAF9 / RFU, SLC1A5 / Fold change vs veh, SLC1A5 / RFU, SLMO2 / Fold change vs veh, SLMO2 / RFU, ABCC4 / Fold change vs veh, ABCC4 / RFU, LOC101060439 /// RAP1B / Fold change vs veh, LOC101060439 /// RAP1B / RFU, RFX7 / Fold change vs veh, RFX7 / RFU, GTPBP10 / Fold change vs veh, GTPBP10 / RFU, CNEP1R1 / Fold change vs veh, CNEP1R1 / RFU, BIVM-ERCC5 /// ERCC5 / Fold change vs veh, BIVM-ERCC5 /// ERCC5 / RFU, ILF3 / Fold change vs veh, ILF3 / RFU 11762660_at / Fold change /veh 11762660_at / RFU VCAN (11757783_s_at) / Fold change /veh VCAN (11757783_s_at) / RFU DDX43 (11728927_at) / Fold change /veh DDX43 (11728927_at) / RFU KRT8 (11758188_x_at) / Fold change /veh KRT8 (11758188_x_at) / RFU NKD1 (11759106_at) / Fold change /veh NKD1 (11759106_at) / RFU SRD5A1 (11742802_a_at) / Fold change /veh SRD5A1 (11742802_a_at) / RFU TPSAB1 /// TPSB2 (11721975_s_at) / Fold change /veh TPSAB1 /// TPSB2 (11721975_s_at) / RFU GSTM3 (11746129_a_at) / Fold change /veh GSTM3 (11746129_a_at) / RFU IL23R (11737362_x_at) / Fold change /veh IL23R (11737362_x_at) / RFU TMEM51 (11727254_a_at) / Fold change /veh TMEM51 (11727254_a_at) / RFU PIWIL2 (11732686_x_at) / Fold change /veh PIWIL2 (11732686_x_at) / RFU ORM1 (11744905_x_at) / Fold change /veh ORM1 (11744905_x_at) / RFU CCDC152 (11743942_at) / Fold change /veh CCDC152 (11743942_at) / RFU ECM1 (11717891_a_at) / Fold change /veh ECM1 (11717891_a_at) / RFU IL23R (11748794_a_at) / Fold change /veh IL23R (11748794_a_at) / RFU TNFAIP8L3 (11732012_x_at) / Fold change /veh TNFAIP8L3 (11732012_x_at) / RFU MBOAT4 (11741988_at) / Fold change /veh MBOAT4 (11741988_at) / RFU 11764193_at / Fold change /veh 11764193_at / RFU TMEM53 (11763286_at) / Fold change /veh TMEM53 (11763286_at) / RFU MAGEB2 (11727129_at) / Fold change /veh MAGEB2 (11727129_at) / RFU TMEM200A (11744735_a_at) / Fold change /veh TMEM200A (11744735_a_at) / RFU CCDC152 (11751479_a_at) / Fold change /veh CCDC152 (11751479_a_at) / RFU FAM211A (11726209_a_at) / Fold change /veh FAM211A (11726209_a_at) / RFU RGS16 (11746705_a_at) / Fold change /veh RGS16 (11746705_a_at) / RFU VCAN (11755009_s_at) / Fold change /veh VCAN (11755009_s_at) / RFU RHOB (11743442_s_at) / Fold change /veh RHOB (11743442_s_at) / RFU RGS16 (11720943_a_at) / Fold change /veh RGS16 (11720943_a_at) / RFU RGS16 (11720944_at) / Fold change /veh RGS16 (11720944_at) / RFU, VPS4B / Fold change vs veh, VPS4B / RFU, CREB1 / Fold change vs veh, CREB1 / RFU, DNAJC13 / Fold change vs veh, DNAJC13 / RFU, GNAQ / Fold change vs veh, GNAQ / RFU, CDK5R1 / Fold change vs veh, CDK5R1 / RFU, ZRANB3 / Fold change vs veh, ZRANB3 / RFU, CUL4A / Fold change vs veh, CUL4A / RFU, CCNY / Fold change vs veh, CCNY / RFU, UFL1 / Fold change vs veh, UFL1 / RFU, COG3 / Fold change vs veh, COG3 / RFU, DIAPH2 / Fold change vs veh, DIAPH2 / RFU, SKA2 / Fold change vs veh, SKA2 / RFU, AFF3 / Fold change vs veh, AFF3 / RFU, LMF1 / Fold change vs veh, LMF1 / RFU, IPO11 / Fold change vs veh, IPO11 / RFU, DFFB / Fold change vs veh, DFFB / RFU, FOXP1 / Fold change vs veh, FOXP1 / RFU, CARD8 / Fold change vs veh, CARD8 / RFU, STRN3 / Fold change vs veh, STRN3 / RFU, ADK / Fold change vs veh, ADK / RFU, RASSF2 / Fold change vs veh, RASSF2 / RFU, WIPF1 / Fold change vs veh, WIPF1 / RFU, LARP1B / Fold change vs veh, LARP1B / RFU, RASA1 / Fold change vs veh, RASA1 / RFU, RB1 / Fold change vs veh, RB1 / RFU, PPFIA1 / Fold change vs veh, PPFIA1 / RFU, MAT2A / Fold change vs veh, MAT2A / RFU, CCT5 / Fold change vs veh, CCT5 / RFU, WDR92 / Fold change vs veh, WDR92 / RFU, CUX1 / Fold change vs veh, CUX1 / RFU, TTC7A / Fold change vs veh, TTC7A / RFU, TMEM135 / Fold change vs veh, TMEM135 / RFU, DEPTOR / Fold change vs veh, DEPTOR / RFU, CPM / Fold change vs veh, CPM / RFU, DNAJB6 / Fold change vs veh, DNAJB6 / RFU, CACNA2D3 / Fold change vs veh, CACNA2D3 / RFU, DTX4 / Fold change vs veh, DTX4 / RFU, TFCP2 / Fold change vs veh, TFCP2 / RFU, GMCL1 /// GMCL1P1 / Fold change vs veh, GMCL1 /// GMCL1P1 / RFU, AEBP2 / Fold change vs veh, AEBP2 / RFU, SNHG1 /// SNORD22 /// SNORD25 /// SNORD26 /// SNORD27 /// SNORD28 /// SNORD29 /// SNORD31 / Fold change vs veh, SNHG1 /// SNORD22 /// SNORD25 /// SNORD26 /// SNORD27 /// SNORD28 /// SNORD29 /// SNORD31 / Fold change (Aza/veh), C12orf56 (ProbeSet 11735607_a_at) / Fold change (ACY-1035/veh), C12orf56 (ProbeSet 11735607_a_at) / Fold change (Aza/veh), FGFR1OP (ProbeSet 11751329_s_at) / Fold change (ACY-1035/veh), FGFR1OP (ProbeSet 11751329_s_at) / Fold change (Aza/veh), VPS36 (ProbeSet 11739960_a_at) / Fold change (ACY-1035/veh), VPS36 (ProbeSet 11739960_a_at) / RFU SYPL1 (11715823_x_at) / Fold change /veh SYPL1 (11715823_x_at) / RFU IGFBP7 (11715501_s_at) / Fold change /veh IGFBP7 (11715501_s_at) / RFU REEP3 (11722064_at) / Fold change /veh REEP3 (11722064_at) / RFU IGLL1 (11728026_x_at) / Fold change /veh IGLL1 (11728026_x_at): dose or concentration left out as unconfirmed
Settings: ProbeSet 11739696_s_at; LIST D

Nc1ncn([C@@H]2O[C@H](CO)[C@@H](O)[C@H]2O)c(=O)n1 [azacitidine]
RFU, AFF3: 345.70 RFU
